From patent US20210254138A1, “SIALIC ACID TRANSPORTER PROTEINS AS BIOMARKERS AND DRUG TARGETS” (Quadram Institute Bioscience, priority 2018, published 2021)

Tests used:
[1] = system: R. gnavus ATCC 29149 wild-type; test: Growth on sole carbon source, wild-type strain; type: cell-based; details: 11.1 mM in YCFA, anaerobic
Procedure: R. gnavus ATCC 29149 was routinely grown in an anaerobic cabinet (Don Whitley, Shipley, UK) in BHI-YH as previously described (Crost et al., 2013). Growth on single carbon sources utilized anaerobic basal YCFA medium (Duncan et al., 2002) supplemented with 11.1 mM of specific mono- or oligosaccharides (2,7-anhydro-Neu5Ac, 3'Sialyllactose (3'SL) or glucose). The bacteria were grown to late exponential phase for RNA extraction, the culture was performed in 14 ml tubes. Growth was determined spectrophotometrically by monitoring changes in optical density at […] compared to the same medium without bacterium (ΔOD595 nm) hourly for 10 hours.
(§1) The ability of the mutants to utilise sialic acids and sialoconjugates was assessed by supplementing YCFA with 11.1 mM of 2,7-anhydro-Neu5Ac, 3'SL, glucose or Neu5Ac in triplicate 200 μl cultures in 96-well microtiter plates. The OD595 nm was measured hourly for 10 h in an infinite F50 plate reader (Tecan, UK) housed within an anaerobic cabinet connected to Magellan V7.0 software.

[2] = system: RgSBP; test: Saturation transfer difference (STD) NMR with RgSBP; type: binding, R. gnavus ATCC 29149; details: RgSBP 50 μM with 2,7-anhydro-Neu5Ac 0.5 mM and Neu5Ac 1 mM
Procedure: An amicon centrifuge filter unit with a 10 kDa MW cut-off was used to exchange the protein in 25 mM d19-2,2-bis (hydroxymethyl)-2,2′,2″-nitrilotriethanol pH* 7.4 (uncorrected for the deuterium isotope effect on the pH glass electrode) D2O buffer and 50 mM NaCl. 2,7-anhydro-Neu5Ac and Neu5Ac were dissolved in 25 mM d19-2,2-bis(hydroxymethyl)-2,2′,2″-nitrilotriethanol pH* 7.4, 50 mM NaCl. Characterization of ligand binding by Saturation Transfer Difference NMR Spectroscopy (Mayer, M. and Meyer, B. (1999) was performed on a Bruker Avance 800.23 MHz at 298 K. The on- and off-resonance spectra were acquired using a train of 50 ms Gaussian selective saturation pulses using a variable saturation time from 0.5 s to 4 s, for binding epitope mapping determination while only 0.5 s of saturation time for each selected frequency was used to perform the DEEP-STD NMR experiments (Monaco et al., 2017). The water signal was suppressed by using the excitation sculpting technique (Hwang et al., 1995), while the remaining protein resonances were filtered using a T2 filter of 40 ms. All the spectra were performed with a spectral width of 10 KHz and 32768 data points using 256 or 512 scans. This time due to the absence of a 3D structure it was impossible to derive the resonances for saturation of aliphatic and aromatic residues found in the binding site as required by the DEEP-STD NMR technique. […]

[3] = molecular target: RgNanA (RUMGNA_02692, sialic acid aldolase) (Mediterraneibacter gnavus, UniProt A7B555); test: Sialic acid aldolase activity assay coupled to lactate dehydrogenase, RgNanA; details: 10 mM sialic acid, 37° C., pH 7.0, A340 nm
Sequence of RgNanA (RUMGNA_02692, sialic acid aldolase) (A7B555 whole entry): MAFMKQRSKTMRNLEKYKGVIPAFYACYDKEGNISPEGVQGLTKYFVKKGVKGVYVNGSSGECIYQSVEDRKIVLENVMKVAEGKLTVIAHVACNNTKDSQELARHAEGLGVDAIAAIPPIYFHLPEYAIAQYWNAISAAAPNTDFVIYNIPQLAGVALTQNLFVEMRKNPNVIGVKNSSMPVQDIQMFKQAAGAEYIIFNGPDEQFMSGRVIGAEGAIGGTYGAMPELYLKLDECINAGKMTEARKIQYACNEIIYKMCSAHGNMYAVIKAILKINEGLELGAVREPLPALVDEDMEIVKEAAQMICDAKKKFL
Procedure: Aldolase cleavage was measured by monitoring the decrease in absorbance at 340 nm (A340 nm) as NADH is converted to NAD by lactate dehydrogenase in a coupled reaction where pyruvate is released from sialic acid by the aldolase. Reactions were performed in a 100 μl volume with final concentrations of 150 μM NADH (Sigma, St Louis, USA), 0.5 U LDH (Sigma, St Louis, USA), 10 mM sialic acid (Neu5Ac or 2,7-anhydro-Neu5Ac) and 1.5 μg purified RgNanA or EcNanA (E. coli aldolase CAS: 9027-60-5, Carbosynth, UK) in 50 mM Na-phosphate buffer (pH 7.0). The reactions were performed at 37° C. and monitored using FLUOstar OPTIMA (BMG LABTECH). For kinetics experiments, the sialic acid concentration was varied at 20, 10, 5, 4, 2, 1, 0.4, 0.2, 0.1 mM and the initial rate of reaction determined for each concentration in triplicate before analysis was performed by fitting the data to a Michaelis-Menten using Graph Pad Prism (V 5.03).
The substrate specificity of RgNanA was determined using a coupled activity assay where pyruvate released during the conversion of sialic acid to ManNAc is converted to lactate by a lactate dehydrogenase and the subsequent loss of absorbance at 340 nm measured as NADH is converted to NAD^+. A commercially available E. coli sialic acid aldolase (EcNanA) was included as a control and enzymes were tested for activity against 2,7-anhydro-Neu5Ac and Neu5Ac. […] The kinetic parameters of RgNanA were determined by calculating the initial rate of reaction with increasing Neu5Ac concentrations. A Michaelis-Menten curve was fitted to the data and kinetic parameters determined (FIG. 7b).

[4] = system: R. gnavus ATCC 29149 nan deletion mutants; test: Growth on sole carbon source, nan deletion mutants; type: cell-based; details: 11.1 mM in YCFA, anaerobic
From the text: R. gnavus mutants were generated using the ClosTron methodology (Heap et al., 2010), which inserts an erythromycin resistance cassette into the gene of interest. Target sites were identified using the Pertuka method (Perutka et al., 2004). The re-targeted introns were synthesised and ligated into the pMTL007C-E2 vector by ATUM (MenloPark, USA). The plasmids were then transformed into E. coli CA434 using the heat-shock protocol, and the recombinant clones selected for chloramphenicol resistance. Recombinant E. coli cells were grown overnight in 10 ml LB, 1 ml of the overnight culture was pelleted and washed with PBS. The E. coli cell pellet was resuspended in 200 μl of an R. gnavus overnight culture and the cell suspension spotted onto a non-selective BHI-YH plate. […]
as §1

| SMILES | utilisation as a sole carbon source (growth) [1] | transfer of magnetization as saturation from the protein to the ligand [2] | aldolase activity against substrate [3] | growth on substrate as sole carbon source [4] |
| --- | --- | --- | --- | --- |
| CC(=O)N[C@H]1C2OC(C(=O)O)(C[C@@H]1O)O[C@@H]2[C@H](O)CO (stereo partly drawn) [2,7-anhydro-Neu5Ac] | able to utilise | clearly observed | neither enzyme showed activity | no growth was detected |
| CC(=O)N[C@H]1[C@H]([C@H](O)[C@H](O)CO)OC(O)(C(=O)O)C[C@@H]1O (stereo partly drawn) [Neu5Ac, N-acetylneuraminic acid] |  | complete absence of saturation transfer | showed activity |  |
